Experimental data as given in US5614192A, “T cell receptor peptides as therapeutics for immune-related disease” (Connective Therapeutics, Inc., priority 1993, dated 1997).
Ends that are not written are not given here.

Test system: EAE
Experiment: Prevention of EAE by immunization with TCR peptide (Example VI)
Type: in vivo, Lewis rats
From the text: EAE is a well-recognized rat model of the human autoimmune disease, multiple sclerosis. […] In this model, the disease is induced by injecting the subject rat with an encephalitogenic form of myelin basic protein, such as, for example, guinea pig basic protein (GPBP) or a synthetic peptide that corresponds to residues 72-89 of GPBP (GPBP(72-89)). Injection of either of these peptides in complete Freund's adjuvant (CFA) induces encephalitogenic T cell clones that utilize preferentially the rat homologs of mouse TCR Vα2 and Vβ8 genes (Chou, Y. K., et al., J. Neurosci. Res. 22:181-187 (1989); Burns, F. R., et al., J. Exp. Med. 169:27-39 (1989)).
^1 EAE was induced by SC challenge with 50 μg GPBP + 400 μg
^2 Rats were injected SC with either: (1) 100 μg of the TCR peptid
^3 Values represent the mean of the maximum severity of EAE. 0, no

DMGHGLRLIHYSYDVNSTEKG [TCR Vβ8(39-59), 21-amino acid CDR2 peptide of rat TCR Vβ8]
EAE Incidence (100 μg peptide/CFA SC 30 days before challenge with 50 μg GPBP/CFA): 0/10
protection from EAE (Lewis rats): prevented completely the induction of EAE
